Measurements published in US9328138B2 (priority 2011, dated 2016).
Structures can show the parent of a compound that is named as a salt.

Experiments:
[1] = molecular target: T1, HCV genotype 1b (BK) NS3 modified enzyme with a R155K mutation (Hepatitis C virus genotype 1b, UniProt P26663, R1181K); assay: HCV NS3 protease time-resolved fluorescence (TRF) assay, genotype 1b R155K; assay type: biochemical; settings: Ki 1b R155K
T1 construct: HCV genotype 1b (BK) NS3 modified enzyme
Procedure, shortened: (§1)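 Inhibitor titrations are mixed with NS3/NS4A in pH 7.5 HEPES buffer containing 10 mM DTT and 15% glycerol for 10 min before substrate (25 nM final) is added. After 6 h at room temperature, delayed fluorescence is read and fitted to a four-parameter curve for IC50.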

[2] = molecular target: HCV NS3 protease genotype 3a (3A-1) (Hepatitis C virus genotype 3a, UniProt Q81258); assay: HCV NS3 protease time-resolved fluorescence (TRF) assay, genotype 3a; assay type: biochemical; settings: Ki 3a
Procedure, shortened: as §1

[3] = genotype 1b (BK) NS3 R155K, single value

| SMILES | Ki [1, 3] [pM] | Ki [2] [pM] | Ki ([1]; first of two values printed in the cell (not explained)) [pM] | Ki ([1]; second of two values printed in the cell (not explained)) [pM] |
| --- | --- | --- | --- | --- |
| C=C[C@@H]1C[C@]1(NC(=O)[C@@H]1C[C@@H]2CN1C(=O)[C@H](C(C)(C)C)NC(=O)O[C@@H]1C[C@H]1CCCCCc1c(nc3ccccc3c1OCCCNC1CCOCC1)O2)C(=O)NS(=O)(=O)C1(C)CC1 [Example 181, (1aR,5S,8S,10R,22aR)-5-tert-butyl-N-[(1R,2S)-2-ethenyl-1-{[(1-methylcyclopropyl)sulfonyl]carbamoyl}cyclopropyl]-3,6-dioxo-17-[3-(tetrahydro-2H-pyran-4-ylamino)propoxy]-1,1a,3,4,5,6,9,10,18, 19,20,21,22,22a-tetradecahydro-8H-7,10-methanocyclopropa[18,19][1,10,3,6] dioxadiazacyclononadecino[11,12-b] quinoline-8-carboxamide] | 65 | 780 |  |  |
| C=C[C@@H]1C[C@]1(NC(=O)[C@@H]1C[C@@H]2CN1C(=O)[C@H](C1CCCC1)NC(=O)N1CC[C@@H](C1)OCCC/C=C/Cc1c(nc3ccccc3c1OCC)O2)C(=O)NS(=O)(=O)C1CC1 [Example 16, (2R,4S,7S,13S,18E)-7-cyclopentyl-N-{(1R,2S)-1-[(cyclopropylsulfonyl)carbamoyl]-2-ethenylcyclo-propyl}-21-ethoxy-6,9-dioxo-3,4,6,7,8,9,12,13, 15,16,17,20-dodecahydro-2H,11H-2,5:10,13-dimethano[1,14,5,7,10]dioxatriazacyclodocosino [15,16-b]quinoline-4-carboxamide] | 1100 | 70000 |  |  |
| C=C[C@@H]1C[C@]1(NC(=O)[C@@H]1C[C@@H]2CN1C(=O)[C@H](C1CCCC1)NC(=O)O[C@@H]1CCC[C@H]1CC/C=C/Cc1c(nc3ccccc3c1OCCCOCCOC)O2)C(=O)NS(=O)(=O)C1CC1 [Example 47, (3aR,7S,10S,12R,21E,24aS)-7-cyclopentyl-N-{(1R,2S)-1-[(cyclopropylsulfonyl)carbamoyl]-2-ethenylcyclopropyl}-19-[3-(2-methoxyethoxy)propoxy]-5,8-dioxo-1,2,3,3a,5,6,7,8,11,12,20,23,24,24a-tetradeca-hydro-10H-9,12-methanocyclopenta[18,19] [1,10,3,6]dioxadiazacyclononadecino[11, 12-b]quinoline-10-carboxamide] | 120 | 2900 |  |  |
| C=C[C@@H]1C[C@]1(NC(=O)[C@@H]1C[C@@H]2CN1C(=O)[C@H](C(C)(C)C)NC(=O)O[C@@H]1CCC[C@H]1CCCCCc1c(nc3ccccc3c1OCCN1CCOCC1)O2)C(=O)NS(=O)(=O)N(C)CCOC [Example 111, (3aR,7S,10S,12R,24aR)-7-tert-butyl-N-[(1R,2S)-2-ethenyl-1-{[(2-methoxyethyl)(methyl)sulfamoyl]carbamoyl}cyclopropyl]-19-[2-(morpholin-4-yl)ethoxy]-5,8-dioxo-1,2,3,3a,5,6,7,8,11,12,20,21,22,23,24,24a-hexadecahydro-10H-9,12-methano-cyclopenta[18,19][1,10,3,6] dioxadiazacyclononadecino [11,12-b] quinoline-10-carboxamide] | 11000 | 272000 |  |  |
| C=C[C@@H]1C[C@]1(NC(=O)[C@@H]1C[C@@H]2CN1C(=O)[C@H](C(C)(C)C)NC(=O)O[C@@H]1CCC[C@H]1CCCCCc1c(nc3ccccc3c1OCCN(C)C)O2)C(=O)NS(=O)(=O)C1(COC)CC1 [Example 63, (3aR,7S,10S,12R, 24aR)-7-tert-butyl-19-[2-(dimethylamino)ethoxy]-N-[(1R,2S)-2-ethenyl-1-({[1-(methoxymethyl)cyclopropyl]sulfonyl}carbamoyl)cyclopropyl]-5,8-dioxo-1,2,3,3a, 5,6,7,8,11,12,20, 21,22,23,24,24a-hexadecahydro-10H-9,12-methanocyclopenta [18,19][1,10,3,6]dioxa-diazacyclononadecino [11,12-b]quinoline-10-carboxamide] | 350 | 7200 |  |  |
| C=C[C@@H]1C[C@]1(NC(=O)[C@@H]1C[C@@H]2CN1C(=O)[C@H](C(C)(C)C)NC(=O)O[C@@H]1CCC[C@H]1CC/C=C/Cc1c(nc3ccccc3c1OCCCN1CCCCC1)O2)C(=O)NS(=O)(=O)C1(C)CC1 [Example 59, (3aR,7S,10S,12R,21E,24aS)-7-tert-butyl-N-[(1R,2S)-2-ethenyl-1-{[(1-methylcyclopropyl)sulfonyl]carbamoyl}cyclopropyl]-5,8-dioxo-19-[3-(piperidin-1-yl)propoxy]-1,2,3,3a,5,6,7,8,11,12,20,23,24,24a-tetra decahydro-10H-9,12-methanocyclopenta[18,19][1,10,3,6] dioxadiazacyclononadecino[11,12-b] quinoline-10-carboxamide] | 110 | 450 |  |  |
| C=C[C@@H]1C[C@]1(NC(=O)[C@@H]1C[C@@H]2CN1C(=O)[C@H](C1CCCC1)NC(=O)O[C@@H]1CCC[C@H]1CC/C=C/Cc1c(nc3ccccc3c1OCc1ccccc1)O2)C(=O)NS(=O)(=O)C1(C)CC1 [Example 15, (3aR,7S,10S,12R,21E,24aS)-19-(benzyloxy)-7-cyclopentyl-N-[(1H,2S)-2-ethenyl-1-{[(1-methylcyclopropyl)sulfonyl]carbamoyl}cyclopropyl]-5,8-dioxo-1,2,3,3a,5,6,7,8,11,12,20,23,24,24a-tetradecahydro-10H-9,12-methanocyclopenta[18,19] [1,10,3,6]dioxadiazacyclononadecino[11,12-b] quinoline-10-carboxamide] | 810 | 36000 |  |  |
| C=C[C@@H]1C[C@]1(NC(=O)[C@@H]1C[C@@H]2CN1C(=O)[C@H](C(C)(C)C)NC(=O)O[C@@H]1C[C@H]1CCCCCc1c(nc3cc(C)ccc3c1OCCCNC)O2)C(=O)NS(=O)(=O)C1(C)CC1 [Example 149, (1aR,5S,8S,10R,22aR)-5-tert-butyl-N-[(1R,2S)-2-ethenyl-1-{[(1-methylcyclopropyl)sulfonyl]carbamoyl}cyclopropyl]-14-methyl-17-[3-(methylamino)propoxy]-3,6-dioxo-1,1a,3,4,5,6,9,10,18,19, 20,21,22,22a-tetradecahydro-8H-7,10-methanocyclopropa[1,19] [1,10,3,6]dioxadiazacyclonona decino[11,12-b]quinoline-8-carboxamide] | 41 | 740 |  |  |
| C=C[C@@H]1C[C@]1(NC(=O)[C@@H]1C[C@@H]2CN1C(=O)[C@H](C(C)(C)C)NC(=O)O[C@@H]1C[C@H]1CCCCCc1c(nc3cc(C(C)C)ccc3c1OCCCN1CCCC1)O2)C(=O)NS(=O)(=O)C1(C)CC1 [Example 159, (1aR,5S,8S,10R,22aR)-5-tert-butyl-N-[(1R,2S)-2-ethenyl-1-{[(1-methylcyclopropyl)sulfonyl]carbamoyl}cyclopropyl]-3,6-dioxo-14-(propan-2-yl)-17-[3-(pyrrolidin-1-yl)propoxy]-1,1a,3,4,5,6,9, 10,18,19,20,21,22,22a-tetradecahydro-8H-7,10-methanocyclopropa[18,19] [1,10,3,6]dioxadiazacyclononadecino [11,12-b]quinoline-8-carboxamide] | 50 | 530 |  |  |
| CC1(S(=O)(=O)NC(=O)[C@@]23C[C@H]2/C=C\CCCCC[C@@H]2NC(=O)O[C@@H]4C[C@H]4CCCCCc4c(nc5ccccc5c4OCCN4CCCC4)O[C@@H]4C[C@@H](C(=O)N3)N(C4)C2=O)CC1 [Example 306, (1aR,5S,11Z,12aS,13aR,16S,19R,31aR)—N-[(1-methylcyclopropyl)sulfonyl]-3,15,33-trioxo-26-[2-(pyrrolidin-1-yl)ethoxy]-1,1a,3,4,5,6,7,8,9,10,12a,13,15,16,18,19,27,28,29,30,31,31a-docosahydro-5,17:16,19-dimethanodicyclopropa[12,13:28,29][1,20,3,14,17]dioxatriazacyclononacosino[21,22-b]quinoline-13a(14H)-carboxamide] | 83 | 720 |  |  |
| C=C[C@@H]1C[C@]1(NC(=O)[C@@H]1C[C@@H]2CN1C(=O)[C@H](C1CCCCC1)NC(=O)O[C@@H]1C[C@H]1CCCCCc1c(nc3ccccc3c1OC1CCCN(C)C1)O2)C(=O)NS(=O)(=O)C1(C)CC1 (stereo partly drawn) [Example 291, 3-{[(1aR,5S,8S,10R,22aR)-5-cyclohexyl-8-{[(1R,2S)-2-ethenyl-1-{[(1-methylcyclopropyl)sulfonyl]carbamoyl}cyclopropyl]carbamoyl}-3,6-dioxo-1,1a,3,4,5,6,9,10,18,19,20,21,22,22a-tetradecahydro-8H-7,10-methanocyclopropa[18,19][1,10,3,6]dioxadiazacyclononadecino[11,12-b]quinolin-17-yl]oxy}-1-methylpiperidinium formate] |  | 774 | 10 | 85 |
| C=C[C@@H]1C[C@]1(NC(=O)[C@@H]1C[C@@H]2CN1C(=O)[C@H](C(C)(C)C)NC(=O)O[C@@H]1CCC[C@H]1CC/C=C/Cc1c(nc3ccccc3c1OCCCN1CCOCC1)O2)C(=O)NS(=O)(=O)C1(C)CC1 [Example 91, (3aR,7S,10S,12R,21E,24aS)-7-tert-butyl-N-[(1R,2S)-2-ethenyl-1-{[(1-methylcyclopropyl)sulfonyl]carbamoyl}cyclopropyl]-19-[3-(morpholin-4-yl)propoxy]-5,8-dioxo-1,2,3,3a,5,6,7,8,11,12,20,23,24,24a-tetradecahydro-10H-9,12-methanocyclopenta[18,19][1,10,3,6] dioxadiazacyclononadecino[11,12-b] quinoline-10-carboxamide] | 160 | 1000 |  |  |
